# Test results as given in patent EP4692059A1, “CATIONIC LIPID HAVING DISULFIDE BOND” (Tohoku University, priority 2023, dated 2024).
# How the values were obtained:
# liver [1] = assay: In vivo gene expression, luciferase luminescence in the liver after tail vein administration (Experimental Example 7); conditions: BALB/c mouse, mRNA 0.05 mg/kg; for amount of luminescence (photons/sec) in liver: tail vein, 4.5 hr after administration, LNP cationic lipid:DOPC:Chol:DMG-PEG2k = 52.5:7.5:40:1.5, prepared as in Experimental Example 6; for relative amount of luminescence: liver luminescence relative to cationic lipid of Comparative Example
# Experimental: LNP encapsulating mRNA that expresses luciferase (cationic lipid:DOPC:Chol:DMG-PEG2k = 52.5:7.5:40:1.5 (molar ratio)) was prepared by the method described in [Experimental Example 6], 1.
# (§1) The prepared each mRNA-encapsulating LNP dispersion was administered from the tail vein of BALB/c mouse (male, 5-week-old). The dose of mRNA was set to 0.05 mg per 1 kg body weight of the mouse, and the dose of the mRNA-encapsulating LNP dispersion was set to 10 µL per 1 g body weight of the mouse. After 4.5 hr from the administration of the mRNA-encapsulating LNP dispersion, a PBS solution of D-luciferin potassium was administered into the abdominal cavity of the mouse. The dose of D-luciferin potassium was set to 3 mg per mouse, and the dose of the PBS solution of D-luciferin potassium was set to 200 µL per mouse. After 15 min from the administration of the PBS solution of D-luciferin potassium, the mouse was euthanized, and the liver was isolated. The luminescence in the liver was quantified using an in vivo imaging system (IVIS) with an exposure of 10 sec. The amount of luminescence in the liver was quantified by image analysis using Live Imaging software attached to IVIS. The amount of luminescence (photons/sec) was calculated from the acquired image and used as an index of gene expression activity. The cationic lipids used, the luminescence intensity in the liver, and the relative luminescence intensity (= luminescence intensity in the liver when cationic lipid of Example was used/luminescence intensity in the liver when cationic lipid of Comparative Example was used) are shown in Table 9. For example, "3.94E+09" means "3.94×10^9". […]
# [2] = Particle size, PdI and zeta potential of mRNA-encapsulating LNPs by dynamic light scattering (Experimental Example 6); format: physicochemical; conditions: mRNA-encapsulating LNP; for zeta potential (mV): cationic lipid:DOPC:Chol=49:7.5:42.5:1, dispersion in TBS (Tables 8-1, 8-2); for PdI / particle size (nm): cationic lipid:DOPC:Chol=49:7.5:42.5:1, dispersion in TBS, dynamic light scattering (Tables 8-1, 8-2)
# Experimental: An acidic buffer solution (total amount: 1300 µL) of nucleic acid was prepared by weighing 6.5 µg of mRNA solution (0.6 mg/mL) in a 5 mL tube and adding acidic citrate buffer (20 mM, pH 5.0).
# An acidic buffer solution of nucleic acid and an ethanol solution of lipid were each weighed in a syringe. […] The obtained concentrate was diluted with TBS to a lipid concentration of 2 mM to give a dispersion containing LNP.
# The particle size, PdI (Polydispersity Index), and zeta potential of the mRNA-encapsulating LNP prepared by the method of the above-mentioned 1 were measured by a dynamic light scattering method (Zetasizer Nano; Malvern). […]
# [3] = Particle size, PdI and zeta potential of mRNA-encapsulating LNPs by dynamic light scattering (Experimental Example 2); format: physicochemical; conditions: mRNA-encapsulating LNP containing the cationic lipid; for zeta potential (mV): dispersion in PBS (Table 5-3); for PdI / particle size (nm): dispersion in PBS, dynamic light scattering (Table 5-3)
# Experimental: An acidic buffer solution (total amount: 1080 µL) of nucleic acid was prepared by weighing 7.2 µg of mRNA solution (0.6 mg/mL) in a 5 mL tube and adding acidic malate buffer (20 mM, pH 3.0).
# An acidic buffer solution of nucleic acid and an ethanol solution of lipid were each weighed in a syringe.
# The particle size, PdI (Polydispersity Index), and zeta potential of the mRNA-encapsulating LNP prepared by the method of the above-mentioned 1 were measured by a dynamic light scattering method (Zetasizer Nano; Malvern).
# mouse red blood cells = assay: Hemolysis activity (membrane fusion ability) at pH 7.4 and 5.5 (Experimental Example 8); format: cell-based, ICR mice
# Experimental: LNP encapsulating mRNA that expresses luciferase (cationic lipid:DOPC:Chol:DMG-PEG2k = 52.5:7.5:40:1.5 (molar ratio)) was prepared by the method described in […], 1. As cationic lipid, the cationic lipid of Comparative Example, compound 94, compound 112, compound 162, compound 181, or compound 194 was used.
# The collected blood was immediately mixed with 1.0 µL of heparin solution (5000 U/5 mL). About 9 mL of PBS was added to the blood to make the total volume 10 mL. The mixture was then mixed by inversion and centrifuged (4°C, 400 g, 10 min). The supernatant containing plasma components was removed using a Pasteur pipette. About 9 mL of PBS was added to the blood cell components to make the total volume 10 mL, and the mixture was centrifuged again. A similar washing procedure was repeated 4 times to obtain mouse red blood cells.
# 2, 4, 6, 8, and 10 µL of mouse red blood cells were weighed and diluted with PBS containing 1 w/v% Triton-X100. The entire diluted solution was transferred to a clear 96-well plate, and the absorbance at 545 nm was measured using a plate reader. A calibration curve was created using these samples, and the point where the absorbance reached 1 was determined as the amount of blood cells to be used in the hemolysis assay. Empty LNP solution was weighed into an Eppendorf tube and diluted with malic acid-PBS buffer (pH 5.5, pH 7.4), followed by addition of mouse red blood cells. The final lipid concentration was 100 µM at pH 7.4 and 33.3 µM at pH 5.5, and the final volume of the solution was 250 µL. Each tube was shaken at 1900 rpm for 15 min. Each sample was centrifuged under centrifugation conditions (4°C, 400 g, 5 min), and 100 µL of the supernatant was transferred to a clear 96-well plate and the absorbance at 545 nm was measured. Untreated red blood cells were used as the negative control. 1 w/v% Triton-X was used as the positive control. The hemolysis activity of each sample was calculated using the following formula: Hemolysis activity (%) = 100×(absorbance of each sample - absorbance of negative control)/(absorbance of positive control - absorbance of negative control).
# liver [4] = assay: In vivo gene expression, luciferase luminescence in the liver after tail vein administration (Experimental Example 4); conditions: BALB/c mouse, mRNA 0.05 mg/kg; for amount of luminescence (photons/sec) in liver: tail vein, 4.5 hr after administration, LNP cationic lipid:DOPC:Chol:DMG-PEG2k = 52.5:7.5:40:1.5, prepared as in Experimental Example 2; for relative amount of luminescence: liver luminescence relative to cationic lipid of Comparative Example
# Experimental: LNP encapsulating mRNA that expresses luciferase (cationic lipid:DOPC:Chol:DMG-PEG2k = 52.5:7.5:40:1.5 (molar ratio)) was prepared by the method described in [Experimental Example 2], 1.
# as §1, with “7-1 to Table 7-3. "E+0a" (a: integer) indicated in Table 7-1 to Table 7-3 means "10^a".” for “9.”
# [5] = pH of the endosomal environment (5.5), final lipid concentration 33.3 µM, Fig. 4, versus LNP of Comparative Example
# [6] = physiological pH (7.4), final lipid concentration 100 µM, Fig. 3
SMILES,amount of luminescence (photons/sec) in liver (liver [1]),relative amount of luminescence (liver [1]),zeta potential (mV) [2],PdI [2],particle size (nm) [2],zeta potential (mV) [3],PdI [3],particle size (nm) [3],hemolysis activity (mouse red blood cells; [5]),hemolysis activity (mouse red blood cells; [6]),amount of luminescence (photons/sec) in liver (liver [4]),relative amount of luminescence (liver [4])
CCCCCCCC/C=C\CCCCCCCC(=O)Oc1ccc(CC(=O)OCCC2CCN(CCSSCCN3CCC(CCOC(=O)Cc4ccc(OC(=O)CCCC(=O)OC(CC(=O)OCCCC)(CC(=O)OCCCC)CC(=O)OCCCC)cc4)CC3)CC2)cc1 [compound 58],1.72E+10 photons/sec,8.40,-4.2 mV,0.071,90.0 nm,-3.5 mV,0.065,96.6 nm,–,–,–,–
CCCCCCCC/C=C\CCCCCCCC(=O)Oc1ccc(CC(=O)OCCC2CCN(CCSSCCN3CCC(CCOC(=O)Cc4ccc(OC(=O)CCCCCCCC(OC(=O)CC)C(CCCCCCCC)OC(=O)CC)cc4)CC3)CC2)cc1 (centres unmarked) [compound 94],–,–,-4.45 mV,0.121,119.7 nm,-2.40 mV,0.048,88.0 nm,superior hemolysis activity compared to the LNP containing the cationic lipid of Comparative Example,none,9.40E+09 photons/sec,6.18
CCCCCCCC(=O)OC(CC=CCCCCCCCC(=O)Oc1ccc(CC(=O)OCCC2CCN(CCSSCCN3CCC(CCOC(=O)Cc4ccc(OC(=O)CCCCCCCC=CCC(CCCCCC)OC(=O)CCCCC)cc4)CC3)CC2)cc1)CCCCCC (centres unmarked) [compound 162],–,–,-3.44 mV,0.079,126 nm,-5.04 mV,0.041,91.2 nm,superior hemolysis activity compared to the LNP containing the cationic lipid of Comparative Example,none,4.43E+09 photons/sec,2.85
CCCCCCCC/C=C\CCCCCCCC(=O)Oc1ccc(CC(=O)OCCC2CCN(CCSSCCN3CCC(CCOC(=O)Cc4ccc(OC(=O)CCCCCCC/C=C\CC(CCCCCC)OC(=O)C(CC)CCCC)cc4)CC3)CC2)cc1 (centres unmarked) [compound 166],8.49E+09 photons/sec,4.15,-2.99 mV,0.09,130.5 nm,-2.5 mV,0.047,89.3 nm,–,–,–,–
CCCCCCC(C/C=C\CCCCCCCC(=O)Oc1ccc(CC(=O)OCCC2CCN(CCSSCCN3CCC(CCOC(=O)Cc4ccc(OC(=O)CCCCCCC/C=C\CC(CCCCCC)OC(=O)c5ccc(OCC)c(OCC)c5)cc4)CC3)CC2)cc1)OC(=O)c1ccc(OCC)c(OCC)c1 (centres unmarked) [compound 173],9.37E+09 photons/sec,4.57,-4.83 mV,0.035,126.1 nm,-4.4 mV,0.070,99.5 nm,–,–,–,–
